According to paper PMC6988309, “Preclinical efficacy for a novel tyrosine kinase inhibitor, ArQule 531 against acute myeloid leukemia” (Journal of Hematology & Oncology, 2020):
Where two headings read alike, the source gives them in different places.

What was measured:
[1] = system: phosphorylated SFK, FLT3, STAT5, and ERK; experiment: Immunoblot of phosphorylated SFK, FLT3, STAT5 and ERK in FLT3-ITD cell lines; type: cell-based, human; conditions: MOLM-13 and MV4-11, serum starved, 10-min treatment
Method: (§1) Cell lines were serum starved overnight followed by a 10-min treatment. Cells were washed in ice-cold PBS then lysed in 1X Cell Lysis Buffer (CST) supplemented with proteinase and phosphatase inhibitors cocktail (Roche). Pierce BCA Protein Assay was used to quantify the protein lysates (Thermo Fisher Scientific, Waltham, MA). For Immunoblotting, 15–25 μg of protein lysate was prepared in 2X or 4X Laemmeli’s sample buffer (Bio-Rad Laboratories, Hercules, CA) and heated for 5 min at 100 °C. Samples were separated on 8% sodium dodecyl sulfate polyacrylamide gel and transferred onto nitrocellulose membrane (Bio-Rad Laboratories, Hercules, CA). The membranes were blocked for 1 h in Blocker BLOTTO Blocking Buffer (Thermo Fisher Scientific, Waltham, MA) or 5% non-fat milk followed by overnight incubation at 4 °C with primary antibody followed by HRP-conjugated secondary antibodies and visualized with chemiluminescent Pierce ECL Substrate (Thermo Fisher Scientific, Waltham, MA) on X-ray films.
(§2) Immunoblot analysis for MOLM-13, MV4-11, and OCI-AML3 AML cell lines (representative of 2-3 independent blots). […] Twenty to 25 μg of total protein lysate was loaded per lane.

[2] = MTT proliferation assay 72 h, Ba/F3 lines with FLT3-ITD, TKD or both (all lines together); type: cell-based, murine; conditions: Mus musculus, BaF3, range across cell lines, read-out: IC50 range over the Ba/F3 FLT3 mutant cell lines
[3] = set-up: method as in PMID 30093506; conditions: cynomolgus monkeys, cited from earlier work
Ba/F3 FLT3-ITD/D835Y = experiment: MTT proliferation assay 72 h, Ba/F3 FLT3-ITD/D835Y; type: cell-based, murine; conditions: Mus musculus, BaF3, read-out: Estimated absolute µM IC50 and 95% CI
Method: (§3) For the MOLM-13 resistant and the Ba/F3-FLT3-ITD/TKD cell lines, cells were treated for 72 h and cell viability was evaluated using MTT assay (Roche Diagnostics. Mannheim. Germany) according to the manufacturer’s instructions.

Ba/F3 FLT3-ITD/F691L = experiment: MTT proliferation assay 72 h, Ba/F3 FLT3-ITD/F691L; type: cell-based, murine; conditions: Mus musculus, BaF3, read-out: Estimated absolute µM IC50 and 95% CI
Method: as §3

MCL1 = experiment: Immunoblot of MCL1 modulation in MOLM-13; type: cell-based, human; conditions: MOLM-13, serum starved, 20 h treatment
Method: Fig. 6 Immunoblot analysis for MCL1 modulation in MOLM-13 FLT3-ITD cell line (representative of two independent blots). Cells were serum starved and treated for 20 h with ARQ 531 alone or in combination with venetoclax. […] GAPDH used as loading control. Band densitometry is done using ImageJ and quantified relative to GAPDH and DMSO treatment (a). In vitro analysis for additive or synergistic activity for ARQ 531 and venetoclax combination. Representative of three MTS proliferation assays. The MOLM-13 cell line was treated with increasing doses of ARQ 531 or venetoclax single agents or a combination of both for 72 h. Three biological replicates were analyzed using Combenefit software implementing the mathematical models for Highest Single Agent (HSA), Loewe, and Bliss (b). […]

MOLM13-Res = experiment: MTT proliferation assay 72 h, MOLM13-Res (D835Y); type: cell-based, human
Excerpt: As one of the main resistance mechanisms to FLT3 inhibitors is the acquisition of TKD mutations, we tested the anti-proliferative activity of ARQ 531 in the MOLM-13 TKI-resistant (MOLM13-Res) cell line previously described in Zimmerman et al.. In this model, MOLM-13 cells have gained a D835Y mutation via continuous exposure to the FLT3 inhibitor tandutinib.

[4] = system: phosphorylation of Tyrosine 416 of the SFK; experiment: Immunoblot of phospho-SFK Tyr416; type: cell-based, human; conditions: MOLM-13, MV4-11, and OCI-AML3, 10-min treatment
Method: as §1, §2

Ba/F3 FLT3-D835H = experiment: MTT proliferation assay 72 h, Ba/F3 FLT3-D835H; type: cell-based, murine; conditions: Mus musculus, BaF3, read-out: Estimated absolute µM IC50 and 95% CI
Method: as §3

For `O=C(c1ccc(Oc2ccccc2)cc1Cl)c1c[nH]c2ncnc(N[C@@H]3CC[C@@H](CO)OC3)c12` [ARQ 531], the “concentration inhibiting phosphorylated levels of SFK, FLT3, STAT5, and ERK” value [1] is listed as at most 500 nM, the IC50 [2] is listed as 1.2 to 7.6 µM and the “plasma half-life (t1/2)” value ([3]; not calculated due to absence of elimination phase) is listed as “long plasma half-life”. The Tmax ([3]; single 10 mg/kg oral dose) was at most 6 h, the oral bioavailability ([3]; single 10 mg/kg oral dose) was 72% and the “share of peak concentration present at 24 h” value ([3]; single 10 mg/kg oral dose) was 75%. For the same molecule, the Cmax ([3]; single 10 mg/kg oral dose, read-out: maximum concentration (Cmax)) was 9 µM, the IC50 (Ba/F3 FLT3-ITD/D835Y) was 7.55 µM and the IC50 (Ba/F3 FLT3-ITD/F691L) was 7.12 µM. For the same molecule, the MCL1 protein level (MCL1) was “MCL1 downregulation”, the IC50 (MOLM13-Res; Homo sapiens, read-out: Estimated absolute µM IC50 and 95% CI, MTT, 72 h) was 3.42 µM and the IC50 (MOLM13-Res; read-out: Estimated absolute µM IC50 and 95% CI, MTT) was 3.4 µM. For the same molecule, the “inhibition of phosphorylation of Tyrosine 416 of the SFK” value [4] was “potently inhibited” and the IC50 (Ba/F3 FLT3-D835H) was 1.74 µM.
